Source: patent US11918352B2, “Non-invasive determination of a physiological state of interest in a subject” (ISBRG CORP., priority 2018, dated 2024)

How the values were obtained:
[1] = Analyte composition of a subject after consumption (Table 2, simplified illustrative data set); type: in vivo, human; conditions: for Analyte level, intoxicated state: 1 hr after consumption, THC induced intoxicated state; for Analyte level, post-intoxicated state: 36 hr after consumption
Description: For example, which is not to be considered limiting, in a THC induced intoxicated state, a subject may comprise the analyte composition presented in Table 1. It is to be understood that this table presents a simplified data set to exemplify the method described herein. Other analytes, which may include known analytes or ghost analytes, are indicated as analytes A, B . . . C; A′, B′, . . . C′; A″, B″ . . . C″. These other analytes may increase or decrease in response to, or that are correlated with, the physiological condition and they may be included in this analysis.
In this example, the result may be considered positive for a THC-induced intoxicated state if the Index is greater than a preset value which is determined based on an analysis of the analytes determined in subjects who were exposed to a control treatment, or a range of THC under controlled conditions, for example an Index value of (2+A)/(C+ . . . +C) may be an indication of a positive result for the state of THC-induced intoxication.

[2] = cited from earlier work

Compound	Analyte level, intoxicated state [1] [ng/mL]	Analyte level, post-intoxicated state [1] [ng/mL]	Residual THC in serum ([2]; chronic users of marijuana, detected for 24 to 48 hours or longer, serum) [ng/mL]	Residual THC in whole blood ([2]; chronic users of marijuana, detected for 24 to 48 hours or longer, whole blood) [ng/mL]	Time of THC peak ([2]; smoked marijuana, after inhaling)	THC level remaining ([2]; smoked marijuana, for 8 hours or more) [ng/mL]
CCCCCc1cc(O)c2c(c1)OC(C)(C)[C@@H]1CCC(C(=O)O)=C[C@@H]21 [THC-COOH, 11-nor-9-carboxy-THC]	5	11				
CCCCCc1cc(O)c2c(c1)OC(C)(C)C1CCC(CO)=CC21 (stereo not shown) [11-OH-THC, 11-hydroxy THC]	5	2				
CCCCCc1cc(O)c2c(c1)OC(C)(C)[C@@H]1CCC(C)=C[C@@H]21 [THC, delta-9-tetrahydrocannabinol]	78	8	1.0 to 6.4	0.5 to 3.2	first few minutes	1 to 2
